Assay [1] in a line: Vero cell cytotoxicity, cytotoxicity control for M. tuberculosis inhibitor project, purified and synthesized samples, set 3 (AID 504684). In kind it is functional. The conditions noted are these: […].
Assay [2] has as its target ADP-ribosylation factor GTPase-activating protein 1 (Rattus norvegicus, UniProt Q62848). In words: Fluorescence polarization-based biochemical high throughput dose response screening assay to identify inhibitors of ADP-ribosylation factor GTPase activating protein 1 (ARFGAP1). In kind it is functional. On the technique in general: In fluorescence polarisation assays a small probe gives low polarisation when free and higher when bound to something large.

A short description of assay [3]: A Cell Based Secondary Assay To Explore Cytotoxicity of Compounds that Sensitize Mycobacterium Tuberculosis to Beta-Lactam Antibiotics. In kind it is functional.
Assay [4] concerns the target Dual specificity protein phosphatase 3 (Homo sapiens, UniProt P51452). In words: VHR phosphatase inhibition, dose response, selectivity assay for STEP inhibitor project, biochemical (AID 602374). In kind it is functional. The conditions noted are these: read-out: IC50_Mean.
The target in assay [5] is T1, Tyrosine-protein phosphatase non-receptor type 22 (Homo sapiens, UniProt Q9Y2R2).
T1 sequence (Q9Y2R2 whole entry): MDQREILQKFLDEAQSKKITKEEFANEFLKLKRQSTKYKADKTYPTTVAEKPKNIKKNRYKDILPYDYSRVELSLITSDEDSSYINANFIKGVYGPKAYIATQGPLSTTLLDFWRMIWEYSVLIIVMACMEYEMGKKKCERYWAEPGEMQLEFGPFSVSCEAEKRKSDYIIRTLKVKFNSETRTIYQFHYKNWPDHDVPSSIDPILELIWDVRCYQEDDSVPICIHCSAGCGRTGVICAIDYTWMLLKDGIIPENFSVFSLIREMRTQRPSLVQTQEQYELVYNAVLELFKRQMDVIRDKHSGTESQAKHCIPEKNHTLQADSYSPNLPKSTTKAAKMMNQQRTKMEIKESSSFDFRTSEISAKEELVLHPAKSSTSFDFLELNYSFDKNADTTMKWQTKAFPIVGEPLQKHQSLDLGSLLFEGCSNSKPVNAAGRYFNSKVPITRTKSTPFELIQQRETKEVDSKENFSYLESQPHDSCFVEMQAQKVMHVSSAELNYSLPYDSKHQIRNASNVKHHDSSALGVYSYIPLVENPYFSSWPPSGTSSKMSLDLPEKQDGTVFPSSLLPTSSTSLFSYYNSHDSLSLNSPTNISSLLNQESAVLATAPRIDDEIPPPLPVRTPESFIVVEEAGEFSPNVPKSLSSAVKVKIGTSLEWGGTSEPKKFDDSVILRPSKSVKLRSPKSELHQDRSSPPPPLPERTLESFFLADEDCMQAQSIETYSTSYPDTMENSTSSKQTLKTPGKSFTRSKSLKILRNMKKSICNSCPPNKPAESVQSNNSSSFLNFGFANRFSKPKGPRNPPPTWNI
In words: PTPN22 phosphatase inhibition, dose response, selectivity assay for STEP inhibitor project, biochemical (AID 624241). In kind it is functional.

The target in assay [6] is Tyrosine-protein phosphatase non-receptor type 11 (Homo sapiens, UniProt Q06124). In words: SHP2 phosphatase inhibition, dose response, selectivity assay for STEP inhibitor project, biochemical (AID 602367). The following applies: read-out: IC50_Mean. In kind it is functional.
Assay [7] concerns the target T2, Carboxy-terminal domain RNA polymerase II polypeptide A small phosphatase 1 (Homo sapiens, UniProt Q9GZU7).
T2 sequence (Q9GZU7 whole entry): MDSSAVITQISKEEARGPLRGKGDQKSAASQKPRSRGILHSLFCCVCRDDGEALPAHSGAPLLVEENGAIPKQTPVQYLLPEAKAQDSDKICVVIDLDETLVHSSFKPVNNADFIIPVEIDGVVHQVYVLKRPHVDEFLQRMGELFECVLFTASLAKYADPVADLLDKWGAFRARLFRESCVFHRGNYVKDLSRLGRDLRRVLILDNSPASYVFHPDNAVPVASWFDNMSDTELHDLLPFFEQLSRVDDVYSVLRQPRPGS
In words: inhibitors of CTDSP1, concentration-response testing, biochemical assay, absorbance-based, actives from ultra-high-throughput screening (AID 540297). In kind it is functional.

Assay [8] concerns the target Tyrosine-protein phosphatase non-receptor type 5 (Homo sapiens, UniProt P54829). In words: STEP phosphatase inhibitors, confirmation, biochemical, fluorescence intensity, uHTS hits (AID 602372). The following applies: read-out: IC50_Mean. In kind it is functional.
The target in the next assay is Nonstructural protein 1 (Influenza A virus, UniProt Q194T2). In kind it is functional, Influenza A virus (A/California/07/2009(H1N1)).
Nonstructural protein 1, sequence (Q194T2 whole entry): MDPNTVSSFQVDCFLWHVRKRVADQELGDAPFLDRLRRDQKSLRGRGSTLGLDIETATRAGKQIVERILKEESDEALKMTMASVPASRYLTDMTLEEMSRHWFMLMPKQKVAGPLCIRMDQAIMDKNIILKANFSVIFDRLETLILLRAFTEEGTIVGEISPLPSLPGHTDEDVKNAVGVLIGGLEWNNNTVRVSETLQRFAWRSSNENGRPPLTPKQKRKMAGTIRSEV
Assay [9] can be described thus: MDA-MB-231 cell growth inhibition, dose response, cytotoxicity control for RAD54 inhibitor project, CellTiter-Glo luminescence, cherry-pick (AID 651692). In kind it is functional, cell-based.
Assay [10] has as its target T3, Microphthalmia-associated transcription factor (Homo sapiens, UniProt O75030).
T3 sequence (O75030 whole entry): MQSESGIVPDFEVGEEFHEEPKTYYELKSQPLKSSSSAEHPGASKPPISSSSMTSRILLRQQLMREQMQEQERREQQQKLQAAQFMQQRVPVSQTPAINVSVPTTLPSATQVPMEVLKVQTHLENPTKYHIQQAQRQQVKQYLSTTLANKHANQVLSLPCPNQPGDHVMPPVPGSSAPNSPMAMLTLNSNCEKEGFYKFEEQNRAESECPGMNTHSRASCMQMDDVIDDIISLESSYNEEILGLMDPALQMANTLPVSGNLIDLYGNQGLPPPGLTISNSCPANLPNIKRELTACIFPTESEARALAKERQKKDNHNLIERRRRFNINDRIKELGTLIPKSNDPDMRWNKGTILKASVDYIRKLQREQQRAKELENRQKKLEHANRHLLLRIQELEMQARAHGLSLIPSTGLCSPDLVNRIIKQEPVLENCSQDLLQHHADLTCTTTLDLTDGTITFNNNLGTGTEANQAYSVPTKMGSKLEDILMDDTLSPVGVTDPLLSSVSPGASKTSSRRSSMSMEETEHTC
In words: TRPM1 promoter luciferase signal decrease, dose response, MITF inhibitor project, cell-based, SK-MEL-5, cherry-picked, set 3 (AID 493073).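 Note: SK-MEL-5 melanoma cells with luciferase driven by the MITF target TRPM1 promoter.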 In kind it is functional.

Assay [11] addresses T4, DNA repair and recombination protein RAD54-like (Homo sapiens, UniProt Q92698).
T4 sequence (Q92698 whole entry): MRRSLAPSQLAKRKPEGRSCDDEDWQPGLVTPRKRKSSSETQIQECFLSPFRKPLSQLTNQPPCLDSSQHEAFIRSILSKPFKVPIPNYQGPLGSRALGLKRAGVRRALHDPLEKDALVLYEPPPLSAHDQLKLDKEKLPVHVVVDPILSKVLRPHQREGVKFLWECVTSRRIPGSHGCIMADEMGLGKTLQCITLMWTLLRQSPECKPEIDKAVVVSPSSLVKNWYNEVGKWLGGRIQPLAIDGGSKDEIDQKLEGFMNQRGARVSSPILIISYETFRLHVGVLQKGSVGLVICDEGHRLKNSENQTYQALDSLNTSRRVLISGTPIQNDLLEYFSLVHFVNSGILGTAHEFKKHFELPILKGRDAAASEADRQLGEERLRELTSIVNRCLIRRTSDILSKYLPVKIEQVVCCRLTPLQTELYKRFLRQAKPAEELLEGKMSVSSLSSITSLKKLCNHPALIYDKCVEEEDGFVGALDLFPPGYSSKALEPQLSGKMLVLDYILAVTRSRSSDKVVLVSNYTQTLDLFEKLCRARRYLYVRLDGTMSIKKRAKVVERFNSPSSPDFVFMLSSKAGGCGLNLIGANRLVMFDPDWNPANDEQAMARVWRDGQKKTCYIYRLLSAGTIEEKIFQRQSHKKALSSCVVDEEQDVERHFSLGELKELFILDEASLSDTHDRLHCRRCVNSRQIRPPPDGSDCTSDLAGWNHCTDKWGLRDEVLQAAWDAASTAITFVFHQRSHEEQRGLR
In words: inhibitors of human RAD54 branch migration, confirmation, biochemical, fluorescence, cherry-picked samples, dose series (AID 651657). In kind it is functional.

In assay [12] the target is T5, DNA repair protein RAD52 homolog (Homo sapiens, UniProt P43351).
T5 sequence (P43351 whole entry): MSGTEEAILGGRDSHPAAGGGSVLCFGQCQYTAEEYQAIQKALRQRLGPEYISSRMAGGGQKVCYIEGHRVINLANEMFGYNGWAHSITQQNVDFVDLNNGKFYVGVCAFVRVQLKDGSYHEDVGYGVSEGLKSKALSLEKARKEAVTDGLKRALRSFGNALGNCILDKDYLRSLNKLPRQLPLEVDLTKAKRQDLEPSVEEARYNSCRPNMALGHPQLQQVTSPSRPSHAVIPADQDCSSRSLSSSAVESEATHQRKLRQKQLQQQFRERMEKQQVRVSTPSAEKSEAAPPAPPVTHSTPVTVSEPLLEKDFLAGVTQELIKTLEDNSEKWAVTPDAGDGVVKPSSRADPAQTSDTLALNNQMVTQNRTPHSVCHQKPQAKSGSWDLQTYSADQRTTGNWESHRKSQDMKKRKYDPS
In kind it is functional, biochemical.

Assay [13] deals with Arf-GAP with SH3 domain, ANK repeat and PH domain-containing protein 1 (Homo sapiens, UniProt Q9ULH1). In kind it is functional.
Arf-GAP with SH3 domain, ANK repeat and PH domain-containing protein 1, sequence (Q9ULH1 whole entry, the tested form may be a part): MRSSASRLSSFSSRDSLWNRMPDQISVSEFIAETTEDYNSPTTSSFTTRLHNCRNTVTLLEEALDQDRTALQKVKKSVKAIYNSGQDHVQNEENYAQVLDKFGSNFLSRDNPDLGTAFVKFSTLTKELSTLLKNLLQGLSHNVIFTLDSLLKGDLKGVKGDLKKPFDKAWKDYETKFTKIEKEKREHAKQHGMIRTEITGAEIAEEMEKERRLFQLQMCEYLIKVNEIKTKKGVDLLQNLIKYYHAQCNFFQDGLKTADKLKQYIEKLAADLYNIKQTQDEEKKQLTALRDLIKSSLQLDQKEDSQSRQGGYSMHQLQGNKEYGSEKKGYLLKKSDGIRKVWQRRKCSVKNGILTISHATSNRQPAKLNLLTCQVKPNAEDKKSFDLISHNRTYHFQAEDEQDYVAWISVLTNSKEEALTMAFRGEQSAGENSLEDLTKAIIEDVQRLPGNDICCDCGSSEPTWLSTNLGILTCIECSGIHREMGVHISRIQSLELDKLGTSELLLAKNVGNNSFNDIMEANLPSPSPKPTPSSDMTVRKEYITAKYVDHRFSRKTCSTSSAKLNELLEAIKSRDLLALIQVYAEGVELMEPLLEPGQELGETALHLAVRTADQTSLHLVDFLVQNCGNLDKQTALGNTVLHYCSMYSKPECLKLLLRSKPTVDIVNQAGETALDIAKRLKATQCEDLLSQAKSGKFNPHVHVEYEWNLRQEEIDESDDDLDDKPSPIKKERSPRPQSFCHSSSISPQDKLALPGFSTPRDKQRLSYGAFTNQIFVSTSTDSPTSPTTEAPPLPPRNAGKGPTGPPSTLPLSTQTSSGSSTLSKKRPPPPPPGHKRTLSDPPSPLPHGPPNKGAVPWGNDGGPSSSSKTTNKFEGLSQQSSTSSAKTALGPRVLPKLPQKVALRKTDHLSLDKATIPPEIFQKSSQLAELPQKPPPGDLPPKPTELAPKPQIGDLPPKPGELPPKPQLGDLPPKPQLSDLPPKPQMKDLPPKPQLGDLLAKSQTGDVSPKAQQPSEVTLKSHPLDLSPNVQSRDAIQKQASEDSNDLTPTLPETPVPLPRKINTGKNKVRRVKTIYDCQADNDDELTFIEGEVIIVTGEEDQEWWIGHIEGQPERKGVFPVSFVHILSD
For another assay, the target named is Protein S100-A4 (Homo sapiens, UniProt P26447). In words: S100A4-myosin IIA binding inhibitor potency, dose response, biochemical, fluorescence polarization, cherry-picked hits (AID 687001). In kind it is functional.
Protein S100-A4, sequence (P26447 whole entry): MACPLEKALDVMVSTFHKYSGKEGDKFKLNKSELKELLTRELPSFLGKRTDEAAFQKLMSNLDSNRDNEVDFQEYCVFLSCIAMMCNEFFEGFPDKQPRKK
The next assay deals with H9c2. In words: cells. In kind it is functional, cell-based. The conditions noted are these: Rattus norvegicus, H9c2, Myocardium.
In assay [14] the target is Long-chain-fatty-acid--AMP ligase FadD28 (Mycobacterium tuberculosis, UniProt P9WQ59). In words: Fluorescence polarization aasay to screen for inhibitors that compete for the binding of FadD28 to a bisubstrate Measured in Biochemical System Using Plate Reader - 2147-01_Inhibitor_Dose_CherryPick_Activity. In kind it is functional, Mycobacterium tuberculosis H37Rv.
In assay [15] the target is T6, ATP-dependent translocase ABCB1 (Homo sapiens, UniProt P08183). In words: ABCG2 efflux pump inhibitor potency, dose response, Ig-MXP3 cells, JC-1, flow cytometry, set 2 (AID 504566).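 Note: flow cytometry median green fluorescence of retained JC-1 dye; potency of efflux pump inhibition measured as rising substrate retention.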 In kind it is functional. The following applies: read-out: EC50_MICROM_.
T6 sequence (P08183 whole entry): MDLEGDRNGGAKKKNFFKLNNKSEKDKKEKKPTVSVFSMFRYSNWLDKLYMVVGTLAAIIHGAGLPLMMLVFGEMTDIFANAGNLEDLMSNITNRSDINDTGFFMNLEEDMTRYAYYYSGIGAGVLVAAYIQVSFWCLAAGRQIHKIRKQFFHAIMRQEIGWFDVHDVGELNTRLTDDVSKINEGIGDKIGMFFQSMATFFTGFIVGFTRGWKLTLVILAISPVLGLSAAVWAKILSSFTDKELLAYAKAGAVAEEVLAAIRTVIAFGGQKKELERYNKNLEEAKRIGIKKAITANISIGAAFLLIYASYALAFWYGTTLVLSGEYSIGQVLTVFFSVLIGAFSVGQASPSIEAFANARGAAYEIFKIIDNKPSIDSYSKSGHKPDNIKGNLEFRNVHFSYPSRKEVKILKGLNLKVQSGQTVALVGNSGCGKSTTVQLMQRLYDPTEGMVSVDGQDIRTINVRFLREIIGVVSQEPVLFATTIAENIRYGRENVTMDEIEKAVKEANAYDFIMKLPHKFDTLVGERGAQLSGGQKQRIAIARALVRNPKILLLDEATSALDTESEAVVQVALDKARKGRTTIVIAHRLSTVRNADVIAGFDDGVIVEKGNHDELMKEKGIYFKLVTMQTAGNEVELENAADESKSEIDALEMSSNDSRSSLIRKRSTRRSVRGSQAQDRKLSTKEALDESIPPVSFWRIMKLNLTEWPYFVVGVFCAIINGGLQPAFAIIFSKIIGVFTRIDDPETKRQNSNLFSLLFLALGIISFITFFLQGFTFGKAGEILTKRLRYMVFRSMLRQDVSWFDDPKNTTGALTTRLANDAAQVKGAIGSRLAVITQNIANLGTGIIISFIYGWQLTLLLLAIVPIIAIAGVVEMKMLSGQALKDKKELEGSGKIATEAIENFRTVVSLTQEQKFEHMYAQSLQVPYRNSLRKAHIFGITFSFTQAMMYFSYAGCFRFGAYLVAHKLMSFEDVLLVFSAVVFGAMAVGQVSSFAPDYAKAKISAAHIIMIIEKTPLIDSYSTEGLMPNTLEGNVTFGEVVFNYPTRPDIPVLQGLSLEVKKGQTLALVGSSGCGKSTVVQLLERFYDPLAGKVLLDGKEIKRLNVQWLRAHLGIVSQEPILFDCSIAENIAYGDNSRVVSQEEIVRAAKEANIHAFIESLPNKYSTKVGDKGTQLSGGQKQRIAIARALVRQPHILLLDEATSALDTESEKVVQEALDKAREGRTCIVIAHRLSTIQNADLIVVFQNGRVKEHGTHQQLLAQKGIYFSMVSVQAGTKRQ
For assay [16], the target named is T6, ATP-dependent translocase ABCB1. In words: ABCB1 efflux inhibitor potency, dose response, Jurkat-DNR cells, JC-1, flow cytometry, set 2 (AID 504569).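 Note: potency of pump inhibitors that raise cellular JC-1 green fluorescence up to the nicardipine level.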 The conditions noted are these: read-out: EC50_MICROM_. In kind it is functional.
For assay [17], the target named is Luciferin 4-monooxygenase (Photinus pyralis, UniProt P08659). In words: firefly luciferase enzyme inhibitors, dose response, biochemical, luminescence (AID 1891).
Luciferin 4-monooxygenase, sequence (P08659 whole entry): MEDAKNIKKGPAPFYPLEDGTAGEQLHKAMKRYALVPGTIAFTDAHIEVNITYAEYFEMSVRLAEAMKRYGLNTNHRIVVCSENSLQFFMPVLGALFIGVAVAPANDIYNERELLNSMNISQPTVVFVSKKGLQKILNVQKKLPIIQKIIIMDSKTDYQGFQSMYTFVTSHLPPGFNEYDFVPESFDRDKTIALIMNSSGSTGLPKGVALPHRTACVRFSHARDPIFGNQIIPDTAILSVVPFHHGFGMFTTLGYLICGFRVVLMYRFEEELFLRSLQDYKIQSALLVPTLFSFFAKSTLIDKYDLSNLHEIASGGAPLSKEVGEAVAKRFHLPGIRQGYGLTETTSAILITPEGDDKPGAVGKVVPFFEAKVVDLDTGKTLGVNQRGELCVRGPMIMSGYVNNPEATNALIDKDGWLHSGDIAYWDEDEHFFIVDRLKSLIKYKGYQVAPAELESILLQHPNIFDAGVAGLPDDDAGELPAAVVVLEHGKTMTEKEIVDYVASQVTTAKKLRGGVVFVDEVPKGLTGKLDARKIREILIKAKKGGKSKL
A short description of assay [18]: Luminescence Cell-Based Dose Confirmation HTS to Identify Inhibitors of Platelet Dense Granule Release. [Related pubchem assays: 1663 (Primary HTS), 1678 (Summary of Project)]. In kind it is functional.
Assay [19] can be described thus: ARNT/TACC3 interaction disruptors, potency, confirmation, biochemical, AlphaScreen, cherry-picked samples (AID 651703).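 Note: His-tagged ARNT PAS-B domain paired with GST-TACC3 E629A dimer coactivator fragment; potency of inhibitors that break up the complex and lower AlphaScreen signal.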 In kind it is functional, Homo sapiens. A general note: Alpha assays give light when donor and acceptor beads are brought close together.
Assay [20] deals with Low molecular weight phosphotyrosine protein phosphatase (Homo sapiens, UniProt P24666). In kind it is functional. The conditions noted are these: read-out: IC50_Mean.
Low molecular weight phosphotyrosine protein phosphatase, sequence (P24666 whole entry): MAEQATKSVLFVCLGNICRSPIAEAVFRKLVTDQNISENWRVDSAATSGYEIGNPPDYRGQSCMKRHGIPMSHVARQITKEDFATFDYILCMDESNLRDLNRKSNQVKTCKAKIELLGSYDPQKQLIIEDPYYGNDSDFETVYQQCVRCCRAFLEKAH

Broadly, the CC50 is the concentration giving 50% cytotoxicity. For orientation: AC50 means the concentration at which the activity in the assay is half-maximal.

The source made the active and inactive calls.

ADP-ribosylation factor GTPase-activating protein 1, sequence (Q62848 whole entry): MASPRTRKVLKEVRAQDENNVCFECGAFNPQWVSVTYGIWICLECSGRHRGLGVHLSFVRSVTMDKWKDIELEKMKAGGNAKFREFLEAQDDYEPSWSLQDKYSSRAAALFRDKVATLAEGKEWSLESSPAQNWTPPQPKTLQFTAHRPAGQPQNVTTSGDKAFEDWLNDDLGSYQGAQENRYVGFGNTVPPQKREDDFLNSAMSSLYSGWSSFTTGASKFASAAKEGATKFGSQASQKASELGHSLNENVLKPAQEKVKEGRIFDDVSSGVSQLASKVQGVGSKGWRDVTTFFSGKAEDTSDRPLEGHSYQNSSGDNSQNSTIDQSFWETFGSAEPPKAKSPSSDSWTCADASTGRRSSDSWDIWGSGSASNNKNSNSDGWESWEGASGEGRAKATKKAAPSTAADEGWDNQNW
Dual specificity protein phosphatase 3, sequence (P51452 whole entry): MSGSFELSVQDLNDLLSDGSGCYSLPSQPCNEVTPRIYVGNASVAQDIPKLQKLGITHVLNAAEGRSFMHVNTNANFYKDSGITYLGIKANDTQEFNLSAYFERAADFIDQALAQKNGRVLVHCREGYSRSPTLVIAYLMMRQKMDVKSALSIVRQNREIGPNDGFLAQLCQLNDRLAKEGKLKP
Tyrosine-protein phosphatase non-receptor type 5, sequence (P54829 whole entry): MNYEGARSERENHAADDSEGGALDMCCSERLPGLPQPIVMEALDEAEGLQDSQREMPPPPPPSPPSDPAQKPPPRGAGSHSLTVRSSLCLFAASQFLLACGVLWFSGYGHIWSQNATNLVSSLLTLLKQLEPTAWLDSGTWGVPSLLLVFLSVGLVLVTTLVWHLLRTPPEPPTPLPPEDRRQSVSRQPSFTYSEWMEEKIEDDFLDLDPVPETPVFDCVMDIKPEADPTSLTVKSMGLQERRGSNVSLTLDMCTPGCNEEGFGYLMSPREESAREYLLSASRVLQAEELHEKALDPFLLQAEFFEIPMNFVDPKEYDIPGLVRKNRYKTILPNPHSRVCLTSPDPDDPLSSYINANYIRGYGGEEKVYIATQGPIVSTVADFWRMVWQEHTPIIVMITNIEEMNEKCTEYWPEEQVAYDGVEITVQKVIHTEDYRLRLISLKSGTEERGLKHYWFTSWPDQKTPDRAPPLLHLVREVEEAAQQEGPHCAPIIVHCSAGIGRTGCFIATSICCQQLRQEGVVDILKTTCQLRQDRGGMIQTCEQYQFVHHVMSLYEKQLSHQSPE

Consider `O=c1[nH]c(S)nc2ccccc12`, for which, in [1], the CC50 is > 100 µM (active).

For `Cc1cccc(NC(=O)Cn2cnc3c(oc4ccccc43)c2=O)c1C`, the IC50 in assay [2] was 28.7 µM (inactive). Besides, the CC50 in [3] is > 40 µM (active).

As to `CCOC(=O)CN1C(=O)S/C(=C/c2ccc(OCc3ccc(C(=O)O)cc3)cc2)C1=O`, the IC50 in [4] was 4.27 µM (active); in assay [5], 50.6 µM (inactive); in assay [6] it was 3.24 µM (active); in [7], 3.74 µM (active); in assay [8], 25.4 µM (inactive).

For `CCN1CCCC1CNC(=O)c1ccc2c(c1)NC(=O)/C(=C\c1ccc(OC)c(OC)c1)S2` (stereo not drawn), the IC50 at Nonstructural protein 1 was 81.9 µM (active). Also, the half-maximal activity concentration (AC50) was 36.4 µM (active) in assay [9], 13.8 µM (active) in assay [10], 12.6 µM (active) in assay [11] and 3.24 µM (active) in assay [12].

`COc1cc(/C=C2/SC(N)=NC2=O)ccc1Oc1ccc([N+](=O)[O-])cc1[N+](=O)[O-]`: in assay [13], the IC50 was 54.9 µM (inactive).

As to `O=C1C=C(N2CCOCC2)c2cccc3cccc1c23`, the half-maximal activity concentration (AC50) at Protein S100-A4 was 4.83 µM (active). Moreover, the IC50 with H9c2 was 18.2 µM (active).

In the case of `Cc1ccc(CSCCNC(=O)c2ccc(N(C)S(=O)(=O)c3ccccc3)cc2)cc1`, the half-maximal activity concentration (AC50) in assay [14] was 7.13 µM (active).

As for `O=C(c1ccccc1)N1CCN(c2cc(-c3ccccc3)nc3cc(-c4ccc(F)cc4)nn23)CC1`, the EC50 in assay [15] is 2.35 µM (active); in [16] it was 5.63 µM (active).

As to `CCOc1ccc(Nc2cc3n(c(=O)n2)CCc2cc(OC)c(OC)cc2-3)cc1`, the values for the EC50 in assay [17] and in assay [18] were > 112 µM (not active) and 12.5 µM (active), respectively. Further, in assay [19], the AC50 is 102 µM (active).

As to `O=C(COc1ccccc1)Nc1sc2c(c1C(=O)NCc1cccnc1)CCCC2`, the IC50 in assay [20] was 21.3 µM (inactive).

These data come from ChEMBL document CHEMBL1201862, “PubChem BioAssay data set” (2004).
